One substance from patent US20200390902A1, “Antibody-Drug Conjugates Targeted at Human Aspartyl-(Asparaginyl)-B-Hydroxylase (HAAH)” (Panacea Pharmaceuticals, Inc., priority 2017, published 2020) can be followed below.

“Also recorded” adds a separate entry of the source. Read-outs that look alike come from different tables or passages of the source.

In series [1] the test system is normal human lung fibroblasts (NHLF). The experiment in a line: Cell morphology by phase contrast microscope, NHLF. The format is cell-based. As to conditions: 32 nM, 72 hours.
Series [2] has as its system H460 cells. The experiment in a line: Lactate dehydrogenase (LDH) release assay, H460. The protocol:
(§1) FIG. 6 depicts the effects of linker and payload on cytotoxicity to cancer cell H460. […] The Log of the antibody concentration in nM is shown on the X axis.
HAAH is highly expressed on the surface of cancer cells, but not on normal adult human cells. The specificity of SNS622-MC-DM1 was examined using human lung carcinoma cell line H460 and LONZA NHLF, a normal human lung fibroblasts (NHLF) cell line. Both cell lines were cultured in HG-DMEM (ThermoFisher Scientific Catalog No. 11965-092) supplemented with 20 mM HEPES (4-(2-hydroxyethyl)-1-piperazineethanesulfonic acid), 4 mM L-glutamine, 1 mM sodium pyruvate, 1× non-essential amino acids, 50 μg/ml gentamicin and 10% fetal bovine serum (FBS). H460 and NHLF cells were seeded into 96-well plates at 5,000 cells per well, following a 2-day FBS deprivation, and released by culture in complete culture medium containing 10% FBS. […] By 72 hours post treatment, cell death was determined by observing cell morphology using a phase contrast microscope at 150×.
The cell death was also quantified using lactate dehydrogenase (LDH) releasing assay. For the LDH assay, a mixture of a 35 μl aliquot of culture medium and 17.5 μl of substrate, enzyme, and dye solutions (Sigma, St. Louis, Mo., U.S.A.) was incubated at room temperature for 30 minutes, and absorbance was measured at 490 nm using a plate reader (ELx805; BioTek, Winooski, Vt., U.S.A.).

Series [3] concerns normal human lung fibroblasts (NHLF). The experiment in a line: Lactate dehydrogenase (LDH) release assay, NHLF. The format is cell-based. To be noted: 32 nM, 72 hours.
The subject of series [4] is MIA-PaCa-2 EV-derived tumors. The experiment in a line: Mouse model inoculated with pancreas cancer cells, MIA-PaCa-2 EV tumors. It counts as in vivo. To be noted: 5 mg/kg, 29 days. As to the method: (§2) The efficacy and specificity of SNS622-MC-DM1 was first examined in the mouse model with inoculation of pancreas cancer cells. In this model. 5 to 6-week-old female Nod Scid Gamma (NSG) mice (The Jackson Laboratory, Bar Harbor, Me., U.S.A.) were subcutaneously inoculated with 5×10^5 MIA-PaCa-2 EV cells (MIA-PaCa-2 cells transduced with an empty lentivirus vector) in 100 μl buffer solution on one shoulder, and with 5×10^5 MIA-PaCa-2 ASPH cells (MIA-PaCa-2 cells expressing high levels of ASPH) in 100 μl buffer solution on the other shoulder Two weeks post-inoculation, SNS622-MC-DM1 or IgG1-MC-DM1 was injected at 5 mg/kg through a tail vein once a week for 4 weeks. A representation of the schedule used for the ADC treatments is show n in FIG. 13.
The response to treatment with SNS622-MC-DM1 of tumors derived from MIA-PaCa-2 HAAH cells and from MIA-PaCa-2 EV cells were compared in the same mouse.

For series [5], the system named is MIA-PaCa-2 ASPH-derived tumors. The experiment in a line: Mouse model inoculated with pancreas cancer cells, MIA-PaCa-2 ASPH tumors. The format is in vivo. The protocol:
as §2
The volume of the tumors inoculated with the MIA-PaCa-2 ASPH cells was measured starting at day 1 of treatment with ADC, and the results are shown in FIG. 15B.

In series [6] the test system is H460 cells. The experiment in a line: MTS cell viability assay, H460. It counts as cell-based, human. As to the method:
(§3) Human H460 cells were obtained from the American Type Culture Collection (ATCC; Manassas, Va., U.S.A.). The H460 cells were seeded at a density of 5,000 cells/well in 96-well plates and cultured in HG-DMEM (ThermoFisher Scientific, Waltham. Mass., U.S.A.; Catalog No. 11965-092) supplemented with 20 mM HEPES, 4 mM L-glutamine, 1 mM sodium pyruvate, 1× non-essential amino acids, 50 μg/ml gentamicin, and 10% fetal bovine serum (FBS)). Human MOLM-14 cells were obtained from Dr. Ashkan Emadi at University of Maryland (Baltimore. Md., U.S.A.). The MOLM-14 cells were seeded at a density of 5000 cells/well in 96-well plates and cultured in RPMI 1640 with 20% heat-inactivated FBS. The H460 and MOLM-14 cells were treated with naked antibodies or ADCs for 24 hours, starting at the time of cell seeding. By the end of experiment, the cell viability for both cell lines was determined quantitatively using CELL TITER 96 AQUOUS ONE SOLUTION cell proliferation assay, a colorimetric method for determining the number of viable cells (MTS; Promega, Madison. Wis., U.S.A.; Catalog No. G3582).
as §1
The bioactivities of these SNS622 ADCs were examined using H460 cells. The cells were treated for 48 hours with these SNS622-MC-DM1s, or with SNS622 as control. Cell viability was evaluated at the end of the experiment using an MTS assay.
SNS622-MC-vc-PAB-DM1 and SNS622-MC-MMAE were also synthesized under different initial DAR ratios of 2.5:1, 5:1 and 10:1 at fixed pH8. The 460 cells were treated for 72 hours with ADCs SNS622-MC-vc-PAB-DM1 at with OAR 2.5:1; 5:1; and 10:1, or SNS622-MC-MMAE at with DAR 2.5:1; 5:1; and 10:1. The cell viability and cell death were separately quantified with […] and lactate dehydrogenase (LDH) release assays. FIG. 8A depicts a graph of the MTA quantification results expressed as percentage of untreated control. FIG. 8B depicts a graph of the LDH assay results expressed as percentage of 512 nM DM1-elicited maximal LDH release. The Log of the antibody concentration in nM is shown on the X axis.
On the technique in general: Tetrazolium assays rely on reduction of a dye to a coloured formazan, in cell work by metabolically active cells.

Series [7] concerns MOLM-14 cells. The experiment in a line: MTS cell viability assay, MOLM-14. It counts as cell-based, human. As to conditions: MOLM-14, 24 hours. As to the method:
as §3, with “The H460 cells were seeded at a density of 5,000 cells/well in 96-well plates and cultured in HG-DMEM (ThermoFisher Scientific, Waltham. Mass., U.S.A.; Catalog No. 11965-092) supplemented with 20 mM HEPES, 4 mM L-glutamine, 1 mM sodium pyruvate, 1× non-essential amino acids, 50 μg/ml gentamicin, and 10% fetal bovine serum (FBS)).” left out

With “SNS622-MC-DM1: SNS622 anti-HAAH monoclonal antibody conjugated to mertansine (DM1) by the non-cleavable linker maleimidocaproyl (MC)”, the “Cell density (morphology)” value in series [1] was “no significant reduction of cell density”. The “Increase in release of LDH compared to untreated cells” value in series [2] (H460, 32 nM, 72 hours) turned out to be 39 ×. For the same substance, in series [2] (read-out: LC50 of LDH, H460, 72 hours, reaction DAR 10:1), the CC50 stood at 36 nM. In series [3], the “Increase in LDH release” value was “did not result in a detectable increase in LDH release”. In addition, the “Effect on MIA-PaCa-2 EV tumor growth” value in series [4] is given as “grew fast throughout the duration of the experiment; also recorded: much lower effect on tumors derived from MIA-PaCa-2 EV cells”. Besides, in series [5] (5 mg/kg, up to 29 days), the “Effect on MIA-PaCa-2 ASPH tumor volume / growth” value was “robustly suppressed; also recorded: strongly suppressed growth of MIA-PaCa-2 ASPH-derived tumors”. For the same substance, the “Reduction in tumor volume in comparison with IgG-MC-DM1 group” value is “approximately 55%” in series [5] (day 15, 5 mg/kg tail vein once a week); “approximately 53%” in series [5] (day 22, 5 mg/kg tail vein once a week); “approximately 53%” in series [5] (day 29, 5 mg/kg tail vein once a week). Moreover, the “Volume of MIA-PaCa-2 ASPH-derived tumors relative to MIA-PaCa-2 EV-derived tumors” value in series [5] (treatment day 29, same mouse, 5 mg/kg) is reported as “approximately 1/7”. In addition, the “Effect on H460 cell viability / growth (MTS)” value in series [6] (H460, 24 hours) is “decreased the H460 cell viability; also recorded: inhibit in vitro cell growth of both H460 and MOLM-14”. For the same substance, the EC50 (usually the concentration that produces a half-maximal response) in series [6] (H460, 24 hours, read-out: EC50, killing of H460 cells (MTS)) was approximately 15 nM. In addition, the IC50 – broadly, the concentration that gives 50% inhibition – in series [6] (H460, 72 hours, reaction DAR 10:1, read-out: IC50 of MTS) amounted to 64 nM; in series [6] (stated for both cancer cell lines (H460 and MOLM-14), read-out: IC50, suppressing cell growth) it was 15 nM. In series [7], the “Effect on MOLM-14 cell viability / growth (MTS)” value is “inhibit in vitro cell growth of both H460 and MOLM-14; also recorded: greatest suppression in the growth of MOLM-14 cells”.
